Measurements as given in paper PMC11653397, “Elucidating the Metabolism of Chiral PCB95 in Wildtype and Transgenic Mouse Models with Altered Cytochrome P450 Enzymes Using Intestinal Content Screening” (Chemical Research in Toxicology, 2024).
Where “and” joins values, the source holds several entries; their conditions need not be identical. Equal values may be shown once. Read-outs that look alike come from different tables or passages of the source.

Key:
[1] = GC-MS/MS levels of PCB95 and total hydroxylated metabolites in intestinal content of orally exposed mice; conditions: for concentration at 24 h: mouse, intestinal content (distal colon and rectum), po, 1 mg/kg
Protocol: The intestinal content samples used in this study were generated as part of a published study of the atropselective disposition of PCB95 and its hydroxylated metabolites in mice.[48] […] This PCB dose is frequently used in PCB developmental neurotoxicity studies in rodent models.[21],[49]−[52] Blank tissue samples to assess the background contamination with PCB95 were generated in parallel by administering corn oil alone to mice (1–3 mice per group). The animals were euthanized 24 h after exposure, and intestinal content samples from the dissected distal colon and rectum were collected. Samples were stored at −80 °C in separate plastic bags and shipped on dry ice to the University of Iowa for analysis.
PCB95 and total OH-PCB95 metabolite levels were determined in intestinal content samples after deconjugation of sulfate and glucuronide conjugates using published methods with modifications.[53] Briefly, intestinal content samples (50 ± 22 mg, n = 38) were homogenized with a TissueRuptor (Qiagen, Hilden, Germany) in 3 mL of 0.2 M sodium acetate buffer (pH 5) in glass tubes and spiked with 4-PCB52 sulfate (100 ng in DMSO) as a surrogate standard. After adding 50 μL of sulfatase (type H-2 from Helix pomatia, Sigma-Aldrich, Burlington, MA, USA), the samples were kept at 37 °C for 16 h in a shaking water bath. Samples were quenched with 1 mL of 6 M HCl, and the surrogate standards (50 ng of PCB117 in isooctane and 50 ng of 4′-159 in methanol) were added to the incubation system. Subsequently, 5 mL of 2-propanol and 5 mL of a 1:1 hexane–MTBE mixture (v/v) were added. The samples were inverted for 5 min and centrifuged at 1690g for 5 min to facilitate the phase separation. Next, the organic phases were transferred to new glass tubes with 3 mL of 1% KCl solution, the aqueous phases were re-extracted with 3 mL of hexane, and the organic phases were combined with the above extract. After inverting and centrifugation, the organic phases were collected, and the aqueous KCl phases were re-extracted with 3 mL of hexane. The combined extracts were evaporated to near dryness using a Savant SpeedVac SPD210 vacuum concentrator (Thermo Scientific, Waltham, MA, USA) coupled with an RVT5105 refrigerated vapor trap (Thermo Scientific, Waltham, MA, USA), and each sample was reconstituted with 0.5 mL of hexane.
Five drops of methanol and 0.5 mL of diazomethane (about 5 mmol) in diethyl ether were added to the intestinal content extracts to derivatize the OH-PCBs.[43] The samples were stored at 4 °C for approximately 16 h for derivatization, and excess diazomethane was removed under a gentle stream of nitrogen in a fume hood. The extract was reconstituted to 0.5 mL of dichloromethane and was loaded onto a glass SPE cartridge filled with 2 g of acidified silica gel (silica gel/H2SO4, 2:1, w/w) with 0.2 g of deactivated silica gel on the bottom.[14] The PCB and metabolites were eluted from the SPE cartridge with 14 mL of dichloromethane; the eluent was concentrated with a Savant SpeedVac SPD210 vacuum concentrator (Thermo Scientific) to near dryness, and the solvent was exchanged to 4 mL of hexane. The extracts were treated with 4 mL of concentrated sulfuric acid for further lipid removal.[14] The organic phase was concentrated to near dryness with a Savant SpeedVac SPD210 vacuum concentrator (Thermo Scientific) and spiked with an internal standard (50 ng of PCB204 in isooctane) for gas chromatographic quantification of PCB95 and its hydroxylated metabolites (as methylated derivatives).
PCB95 and metabolite determinations were conducted on an Agilent 7890B gas chromatograph equipped with an Agilent 7000D Triple Quad and an Agilent 7693 autosampler in the multiple reaction monitoring setting (GC–MS/MS).[14] Gas chromatographic separations were performed with an SPB-Octyl capillary column (30 m length, […], 0.25 μm film thickness; Supelco, Bellefonte, PA, USA).

CYP2A6 = tested on: CYP2A6; design: method as in PMID 30576102, PMID 27989147; conditions: pooled human liver microsomes, recombinant cytochrome P450 enzymes; cited from earlier work
[2] = mouse hepatic microsomes; cited from earlier work
[3] = design: method as in doi:10.1016/0045-6535(75)90032-6; conditions: rats exposed orally to PCB95; cited from earlier work
[4] = design: method as in doi:10.1016/0045-6535(75)90032-6; conditions: mice exposed orally to PCB95; cited from earlier work
[5] = rat hepatic microsomes; cited from earlier work
[6] = Atropselective GC-ECD analysis (enantiomeric fraction) of PCB95 in intestinal content; type: in vivo, mice; conditions: for Enantiomeric fraction (EF) of PCB95 residues in the intestinal content: EF=AE1/(AE1+AE2), racemic standard EF 0.498±0.004, oral 1.0 mg/kg bw, 24 h
Protocol: Atropselective analyses of PCB95 were performed using an Agilent 7890A gas chromatograph with a ^63Ni-μECD detector and a Chirasil-Dex CB capillary column (25 m length, 250 μm inner diameter, 0.25 μm film thickness; Agilent, Santa Clara, CA, USA).[52] The following temperature program was used: 50 °C, hold for 1 min, 10 °C/min to 150 °C, hold for 65 min, 15 °C/min to 200 °C, and hold for 15 min. The injector and detector temperatures were 250 °C. Helium was used as carrier gas with a flow rate of 3.0 mL/min; argon-methane 5% was used as makeup gas with a 60 mL/min flow rate. The enantiomeric fraction (EF) values were calculated with the valley drop method[55] as EF = AE1/(AE1 + AE2), where AE1 and AE2 are the peak area of the first (E1) and the second eluting (E2) atropisomers, respectively.

[7] = female, CYP2A6-transgenic/Cyp2abfgs-null (KI)
[8] = male, CYP2A6-transgenic/Cyp2abfgs-null (KI)
[9] = two-way ANOVA with Bonferroni correction

Compound	concentration at 24 h [1, 7] [ng/g]	concentration at 24 h ([1]; female, Cyp2abfgs-null (KO)) [ng/g]	concentration at 24 h ([1]; female) [ng/g]	concentration at 24 h [1, 8] [ng/g]	concentration at 24 h ([1]; male, Cyp2abfgs-null (KO)) [ng/g]	concentration at 24 h ([1]; male) [ng/g]	Rank among PCB95 metabolites formed by liver microsomes [2]	further results
Oc1c(Cl)cc(Cl)c(-c2cc(Cl)ccc2Cl)c1Cl [3-103, 2,4,6-trichloro-3-(2,5-dichlorophenyl)phenol]	17 ± 11	14 ± 7	14 ± 6	6 ± 6	6 ± 2	7 ± 4	–	–
Oc1cc(Cl)c(-c2c(Cl)ccc(Cl)c2Cl)cc1Cl [4'-95, 2,2′,3,5′,6-pentachlorobiphenyl-4′-ol]	764 ± 831	414 ± 254	356 ± 192	298 ± 240	447 ± 159	452 ± 269	minor metabolites	Rank among PCB95 metabolites formed by human liver microsomes and recombinant P450 (CYP2A6) (CYP2A6): major metabolite
Oc1c(O)c(Cl)c(-c2cc(Cl)ccc2Cl)c(Cl)c1Cl [4,5-95, 3,4,6-trichloro-5-(2,5-dichlorophenyl)benzene-1,2-diol]	1670 ± 1290	527 ± 255	1090 ± 492	570 ± 376	1030 ± 507	1410 ± 574	–	Rank among OH-PCB95 metabolites in intestinal content ([1]; all intestinal content samples, all exposure groups): major metabolite
Oc1cc(Cl)c(-c2cc(Cl)ccc2Cl)c(Cl)c1Cl [4-95, 2,2′,3,5′,6-pentachlorobiphenyl-4-ol]	434 ± 352	192 ± 70	248 ± 109	160 ± 134	177 ± 68	238 ± 134	minor metabolites	–
Oc1cc(Cl)c(Cl)c(-c2cc(Cl)ccc2Cl)c1Cl [5-95, 2,2′,3,5′,6-pentachlorobiphenyl-5-ol]	934 ± 790	359 ± 147	544 ± 295	300 ± 256	333 ± 123	424 ± 279	major PCB95 metabolite	Rank among PCB95 metabolites in feces [3]: major metabolite; Rank among PCB95 metabolites in feces [4]: major metabolite; Rank among PCB95 metabolites formed by hepatic microsomes [5]: major PCB95 metabolite
Clc1ccc(Cl)c(-c2c(Cl)ccc(Cl)c2Cl)c1 [PCB95, 2,2′,3,5′,6-pentachlorobiphenyl]	110 ± 95	26 ± 20	26 ± 18	33 ± 48	139 ± 265	39 ± 40	–	PCB95 levels in the intestinal content, FKI vs MKI mice [1, 9]: higher; PCB95 levels in the intestinal content, MKO vs MKI mice [1, 9]: significantly higher; Enantiomeric fraction (EF) of PCB95 residues in the intestinal content ([6]; FKI (n=4)): 0.44±0.03; Enantiomeric fraction (EF) of PCB95 residues in the intestinal content ([6]; FKO (n=6)): 0.44±0.05; Enantiomeric fraction (EF) of PCB95 residues in the intestinal content ([6]; FWT (n=6), 1 mg/kg): 0.39±0.05 and 0.39; Enantiomeric fraction (EF) of PCB95 residues in the intestinal content ([6]; MKI (n=5)): 0.40±0.03; Enantiomeric fraction (EF) of PCB95 residues in the intestinal content ([6]; MKO (n=7), 1 mg/kg): 0.45±0.04 and 0.45; Enantiomeric fraction (EF) of PCB95 residues in the intestinal content ([6]; MWT (n=5)): 0.41±0.05
Clc1ccc(Cl)c(-c2c(Cl)ccc(Cl)c2Cl)c1 [aS-PCB95]	–	–	–	–	–	–	–	Atropisomeric enrichment in intestinal content ([6]; all intestinal content samples, irrespective of sex and genotype): enriched
